Reference: PubChem BioAssay AID1508612

Assay: passive permeability, PAMPA, ADME assay (AID 1508612)
Conditions: pH 7.4, 30.0 min, 50.0 µM

Papp [×10⁻⁶ cm/s]	Structure (SMILES)
74.4	Cc1ccc(S(=O)(=O)Nc2cnccc2C(=O)Nc2nc(-c3ccncc3)cs2)cc1
714	NC(=O)C1CCN(c2ncc(-c3ccc(Cl)cc3)s2)CC1
> 1000	CCCCn1cnc2cc(NCc3ccc(OCC)cc3)ccc21
517	COc1ccc(-c2noc([C@@H]3Cc4nc[nH]c4CN3C(=O)NC3CCCCC3)n2)cc1
930	Cc1ccnc(NC(=S)N2CCN(c3ncc(C(F)(F)F)cc3Cl)CC2)c1
103	O=C(Nc1ccc(F)cc1F)c1cc(-c2ccc[nH]2)n[nH]1
111	O=C(O)c1cccc(-c2noc(-c3ccccc3F)n2)c1
> 1000	CC(C)COc1ccc(-c2ccc(=O)n(CC(=O)NCCc3ccccc3)n2)cc1
> 1000	COc1cc(Nc2nc(-c3ccncc3)nc3ccccc23)ccc1N1CCN(C)CC1
34.1	COC(=O)C1=C(C)NC(C)=C(C(=O)OCCCN2CCC(c3ccccc3)(c3ccccc3)CC2)C1c1cccc([N+](=O)[O-])c1 (configuration not stated)
> 1000	CCN(CC)C(=O)c1coc(COc2ccc3c(c2)C(c2cccc(F)c2)N(C(=O)C(C)C)CC3)n1 (configuration not stated)
109	Cc1nn2c(c1-c1ccccc1-c1ccccc1)N(Cc1ccc(C(=O)O)s1)CCC2
229	CCOC(=O)C1CCN(C(=O)C2(NC(=O)Nc3ccccc3Cl)CCCC2)CC1
718	O=C1CCCC2=C1C(c1[nH]ncc1Cl)N=C(Nc1nc3ccccc3o1)N2 (configuration not stated)
202	COc1cccc(-c2noc(Nc3ccc4c(c3)OCCO4)n2)c1
> 1000	O=C(CCCN1CCC(O)(c2cccc(C(F)(F)F)c2)CC1)c1ccc(F)cc1
58.8	O=C1Nc2c(Cl)cccc2/C1=C\c1cc(Cl)c(O)c(Cl)c1
552	Fc1cc(Nc2nc(-c3ccncc3)nc3ccccc23)ccc1OC(F)(F)F
> 1000	COc1cc(C(=O)N2CCN(c3cc(Cl)ccc3Cl)CC2)cc(OC)c1OC
66.8	COC[C@@H]1CN(C(=O)c2n[nH]c3ccccc23)C[C@H]1c1nc(C)no1
> 1000	CC(C)(C)c1ccc(-c2ccc(=O)n(CC(=O)NCCc3ccccc3)n2)cc1

Further lines, the molecule ahead of its results:

Structure (SMILES)	Papp [×10⁻⁶ cm/s]
Cc1ccc(S(=O)(=O)Nc2cnccc2C(=O)Nc2nc(-c3cnn(C)c3)cs2)cc1	54.9
CCOc1ccc(NC(=O)CSC2=Nc3ccccc3C3=NC(CC(=O)NCc4cccs4)C(=O)N23)cc1 (configuration not stated)	25
Cc1ccccc1-c1nc(NCc2cccs2)c2ccccc2n1	406
CCOc1ccc(CCNC(=O)c2cc3ccncc3n2Cc2cccc(C)n2)cc1OCC	3.77
CC/C=C\C/C=C\C/C=C\C/C=C\C/C=C\C/C=C\CCC(=O)NCCO	298
COc1ccccc1-c1nc(NCc2ccc(-c3cccnc3)cc2)c2ccccc2n1	980
O=C(Nc1nc(-c2ccccc2)cs1)c1ccncc1NS(=O)(=O)c1ccc(C(F)(F)F)cc1	316
O=C(NC1CC1)c1ccc(CSCc2ccccc2Cl)o1	758
CC(=O)N1CCc2c(sc3c2c(=O)n(-c2ccccc2)c(=O)n3CC(=O)c2ccccc2)C1	714
CCN1CCN(C(=O)CCCn2nc(C)c3c(C)n(-c4ccc(C)cc4)nc3c2=O)CC1	175
CC1=Nc2cc(C(=O)NC3CCCC3)ccc2Sc2ccc(C)cc21	> 1000
CS(=O)(=O)Nc1cccc(-c2nccc(-n3ccnc3)n2)c1	355
COc1ccc(C2c3c(ncn(CCN4CCOCC4)c3=N)Oc3ccc4ccccc4c32)cc1OC (configuration not stated)	> 1000
Cc1ccc(S(=O)(=O)Nc2cnccc2C(=O)NCc2ccccc2)cc1	27.7
O=C(Nc1ccccc1F)c1nc(S(=O)(=O)Cc2ccccc2F)ncc1Cl	891
CC(=O)Nc1ccc(S(=O)(=O)Nc2nccs2)cc1	< 1

Structure (SMILES)	Papp [×10⁻⁶ cm/s]
N#Cc1ccccc1-c1csc(N2CCC(C(N)=O)CC2)n1	343
CC(C)CNc1ccnc(NCc2csc(-c3ccccc3)n2)n1	> 1000
CCOc1ccc(NC(=O)c2nc(S(=O)(=O)Cc3ccccc3F)ncc2Cl)cc1	882
CCOc1ccc(CCNC(=O)c2cc3ncccc3n2Cc2cccc(C)c2)cc1OCC	> 1000
CC(=O)c1c(C)[nH]c(C(=O)Nc2cccc([S+](=O)([O-])Nc3c(C)cccc3C)c2)c1C	117
N#Cc1ccc(S(=O)(=O)Nc2cnccc2C(=O)Nc2nc(-c3ccccc3)cs2)cc1	279
COc1ccccc1CNC(=O)CCCn1nc(C)c2c(C)n(-c3ccc(C)cc3)nc2c1=O	604
NC1CCN(c2nc(-c3ccc(Br)cc3)cs2)CC1	> 1000
N=c1c2c(ncn1-c1ccccc1)Oc1ccc3ccccc3c1C2c1ccc2c(c1)CCO2 (configuration not stated)	282
FC(F)(F)c1ccccc1-c1nc(NCc2ccc(-c3cccnc3)cc2)c2ccccc2n1	786
CC1CCC(n2c3cnccc3c3cnc(Nc4ccc5c(n4)CCN(C(=O)CO)C5)nc32)CC1 (configuration not stated)	135
O=C1CCCC2=C1C(c1[nH]ncc1Cl)N=C(Nc1nc3c(Cl)cccc3o1)N2 (configuration not stated)	162
CCOc1ccccc1C(=O)NC1CCN(c2cc(C)cc(C)c2)C1=O (configuration not stated)	> 1000
O=[N+]([O-])c1cccc(CNc2ccc(S(=O)(=O)Nc3nccs3)cc2)c1O	28.6
CCNC(=O)c1noc(-c2cc(C(C)C)c(O)cc2O)c1-c1ccc(CN2CCOCC2)cc1	335
